Reference: the supplement of paper PMC10307832

How the values were obtained:
Experiment in all cases: relative viability (nuclei count vs DMSO), 5 days (fraction); higher = more cells survive
[1] = compound: CC1=CC(=CC=C1)NC2=NC(=CS2)C3=CC=NC=C3 + CC1(C)CCC(c2ccc(Cl)cc2)=C(CN2CCN(c3ccc(C(=O)NS(=O)(=O)c4ccc(N[C@H](CCN5CCOCC5)CSc5ccccc5)c(S(=O)(=O)C(F)(F)F)c4)cc3)CC2)C1 [Navitoclax] (partner 0.5 µM)
How it was run: (§1)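 Relative viability is defined as nuclei in treated wells over nuclei in vehicle wells. Duplicate plates were run and medians reported. Lung cancer cell lines in 1536-well plates were dosed by pin tool one day after seeding, with one drug or with a fixed anchor-drug dose plus five library-drug doses (not always all listed) in √10 steps, and nuclei were counted after 5 days.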

[2] = compound: CC1=CC(=CC=C1)NC2=NC(=CS2)C3=CC=NC=C3 + CS(=O)(=O)CCNCc1ccc(-c2ccc3ncnc(Nc4ccc(OCc5cccc(F)c5)c(Cl)c4)c3c2)o1 [Lapatinib] (partner 2 µM)
How it was run: as §1

Masitinib + Luminespib = compound: Cc1ccc(NC(=O)c2ccc(CN3CCN(C)CC3)cc2)cc1Nc1nc(-c2cccnc2)cs1 [Masitinib] + CCNC(=O)c1noc(-c2cc(C(C)C)c(O)cc2O)c1-c1ccc(CN2CCOCC2)cc1 [Luminespib] (partner 0.01 µM)
How it was run: as §1

Masitinib + Dasatinib = compound: Cc1ccc(NC(=O)c2ccc(CN3CCN(C)CC3)cc2)cc1Nc1nc(-c2cccnc2)cs1 [Masitinib] + Cc1nc(Nc2ncc(C(=O)Nc3c(C)cccc3Cl)s2)cc(N2CCN(CCO)CC2)n1 [Dasatinib] (partner 0.075 µM)
How it was run: as §1

Cell Line | relative viability ([1]; first compound 0.08 µM) | relative viability ([1]; first compound 0.253 µM) | relative viability ([1]; first compound 0.8 µM) | relative viability ([1]; first compound 2.53 µM) | relative viability ([1]; first compound 8 µM) | relative viability ([2]; first compound 0.08 µM) | relative viability ([2]; first compound 0.253 µM) | relative viability ([2]; first compound 0.8 µM) | relative viability ([2]; first compound 2.53 µM) | relative viability ([2]; first compound 8 µM) | relative viability (Masitinib + Luminespib; first compound 0.01 µM) | relative viability (Masitinib + Luminespib; first compound 0.03162 µM) | relative viability (Masitinib + Luminespib; first compound 0.1 µM) | relative viability (Masitinib + Luminespib; first compound 0.3162 µM) | relative viability (Masitinib + Luminespib; first compound 1 µM) | relative viability (Masitinib + Dasatinib; first compound 0.01 µM) | relative viability (Masitinib + Dasatinib; first compound 0.03162 µM) | relative viability (Masitinib + Dasatinib; first compound 0.1 µM) | relative viability (Masitinib + Dasatinib; first compound 0.3162 µM) | relative viability (Masitinib + Dasatinib; first compound 1 µM)
PC-3 [JPC-3] | 0.791 | 0.671 | 0.719 | 0.705 | 0.681 | 0.36 | 0.375 | 0.453 | 0.362 | 0.467 | 0.741 | 0.571 | 0.774 | 0.783 | 0.677 | 0.984 | 0.839 | 0.973 | 0.927 | 0.954
NCI-H2087 | 0.963 | 0.996 | 0.945 | 0.799 | 0.82 | 0.823 | 0.788 | 0.846 | 1.11 | 0.829 | 0.158 | 0.166 | 0.153 | 0.202 | 0.181 | 0.922 | 0.927 | 1.01 | 0.775 | 0.788
NCI-H1755 | 0.923 | 0.937 | 0.846 | 0.824 | 0.679 | 1.01 | 1.04 | 0.843 | 0.902 | 0.707 |  | 0.528 | 0.414 | 0.697 | 0.331 |  | 0.455 | 0.451 | 0.422 | 0.383
NCI-H2228 | 0.866 | 1.07 | 0.622 | 0.969 | 0.655 | 0.948 | 1.11 | 0.884 | 0.823 | 0.883 | 0.172 | 0.189 | 0.16 | 0.148 | 0.15 | 0.544 | 0.461 | 0.729 | 0.523 | 0.425
